The record followed here is patent US8895733B2 (Novartis AG, priority 2010, dated 2014).

Like-named read-outs stand apart in the source and are kept apart here.

The target of this test is T1, Nav 1.7 (Homo sapiens, UniProt Q15858).
T1 construct: expressed in transfected cells
Nature of the test: Whole-cell voltage clamp electrophysiology, automated patch clamp (marker c in Table of Examples). It counts as cell-based. The note with it: read-out: Nav 1.7 activity. In a few lines: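 A voltage protocol weighted toward inactivated-state block was used to test compounds on stably expressing cells, with pulses from −65 mV holding to −10 mV test and −100 mV. Currents came from whole-cell automated patch-clamp recordings, either IonWorks Quattro or other automated instruments, usually in perforated-patch mode.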
Background: Patch clamp records ionic current or voltage across a cell membrane.

Where [1] appears, read: marker c = Automated patch clamp data.
Setting [2] is: marker c: Automated patch clamp data.

T1 sequence (Q15858 whole entry): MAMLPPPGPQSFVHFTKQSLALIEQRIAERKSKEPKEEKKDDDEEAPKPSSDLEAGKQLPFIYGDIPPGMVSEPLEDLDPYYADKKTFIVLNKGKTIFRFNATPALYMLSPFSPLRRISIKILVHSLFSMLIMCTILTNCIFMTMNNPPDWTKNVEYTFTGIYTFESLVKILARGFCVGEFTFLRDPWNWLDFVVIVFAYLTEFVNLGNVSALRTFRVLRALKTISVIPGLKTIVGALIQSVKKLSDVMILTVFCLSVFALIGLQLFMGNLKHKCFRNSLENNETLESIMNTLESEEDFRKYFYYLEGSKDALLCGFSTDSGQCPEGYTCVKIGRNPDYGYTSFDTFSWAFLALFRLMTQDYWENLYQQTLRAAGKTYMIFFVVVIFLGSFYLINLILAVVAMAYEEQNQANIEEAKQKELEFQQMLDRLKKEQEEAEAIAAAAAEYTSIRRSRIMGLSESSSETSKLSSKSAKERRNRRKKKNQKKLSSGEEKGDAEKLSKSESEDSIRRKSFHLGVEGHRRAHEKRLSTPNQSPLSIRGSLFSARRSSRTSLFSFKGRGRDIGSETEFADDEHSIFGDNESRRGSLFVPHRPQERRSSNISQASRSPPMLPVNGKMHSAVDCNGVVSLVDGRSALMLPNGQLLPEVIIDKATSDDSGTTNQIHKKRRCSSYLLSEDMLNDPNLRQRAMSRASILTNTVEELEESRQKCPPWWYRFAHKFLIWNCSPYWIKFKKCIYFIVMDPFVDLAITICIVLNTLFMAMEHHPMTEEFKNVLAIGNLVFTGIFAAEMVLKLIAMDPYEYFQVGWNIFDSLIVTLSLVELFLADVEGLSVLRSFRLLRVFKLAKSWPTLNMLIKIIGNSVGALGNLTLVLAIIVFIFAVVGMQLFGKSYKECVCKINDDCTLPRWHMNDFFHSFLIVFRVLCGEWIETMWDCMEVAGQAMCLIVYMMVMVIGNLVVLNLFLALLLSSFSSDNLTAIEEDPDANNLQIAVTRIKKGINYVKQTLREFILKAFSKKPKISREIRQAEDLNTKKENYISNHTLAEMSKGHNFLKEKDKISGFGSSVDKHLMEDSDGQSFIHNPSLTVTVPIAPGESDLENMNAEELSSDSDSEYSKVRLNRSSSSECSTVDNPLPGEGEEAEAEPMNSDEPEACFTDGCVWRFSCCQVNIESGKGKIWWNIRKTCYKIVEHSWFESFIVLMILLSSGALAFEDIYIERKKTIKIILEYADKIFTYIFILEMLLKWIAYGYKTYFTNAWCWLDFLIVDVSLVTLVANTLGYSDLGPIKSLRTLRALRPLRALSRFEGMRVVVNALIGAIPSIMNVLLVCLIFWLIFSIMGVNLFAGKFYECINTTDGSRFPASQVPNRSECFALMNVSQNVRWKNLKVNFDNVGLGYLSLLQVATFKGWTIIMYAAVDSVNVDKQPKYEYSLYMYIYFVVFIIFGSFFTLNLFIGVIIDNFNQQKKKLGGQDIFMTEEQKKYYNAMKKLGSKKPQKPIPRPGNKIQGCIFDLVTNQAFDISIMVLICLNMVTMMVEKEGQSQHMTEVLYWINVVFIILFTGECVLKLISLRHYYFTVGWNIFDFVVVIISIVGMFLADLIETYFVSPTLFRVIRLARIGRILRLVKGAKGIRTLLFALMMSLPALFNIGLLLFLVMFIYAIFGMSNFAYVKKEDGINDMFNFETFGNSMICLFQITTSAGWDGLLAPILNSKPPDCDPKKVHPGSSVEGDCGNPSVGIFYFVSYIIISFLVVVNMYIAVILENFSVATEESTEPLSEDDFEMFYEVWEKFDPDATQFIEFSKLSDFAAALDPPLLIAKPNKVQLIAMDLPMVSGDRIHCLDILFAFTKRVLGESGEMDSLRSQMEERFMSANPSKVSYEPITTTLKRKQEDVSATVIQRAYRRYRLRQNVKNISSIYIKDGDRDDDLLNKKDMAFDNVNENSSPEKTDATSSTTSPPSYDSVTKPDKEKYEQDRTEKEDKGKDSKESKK

`COc1ccc(CNC(=O)c2nc(-c3nc(N)nc(N(C)c4ccccc4)n3)no2)cn1` [Example 260, 3-{4-amino-6-[methyl(phenyl)amino]-1,3,5-triazin-2-yl}-N-[(6-methoxypyridin-3-yl)methyl]-1,2,4-oxadiazole-5-carboxamide]: the IC50 under setting [1] was 1.2 µM.
In the case of `CN1CCC(Oc2ccc(-c3nc(-c4nc(N)nc(N(C)c5ccccc5)n4)no3)cn2)C1` (centres unmarked) [Example 364, 2-N-methyl-6-(5-{6-[(1-methylpyrrolidin-3-yl)oxy]pyridin-3-yl}-1,2,4-oxadiazol-3-yl)-2-N-phenyl-1,3,5-triazine-2,4-diamine], the IC50 under setting [1] was 1.61 µM.
On to `Nc1ccc(-c2nc(-c3nc(N)nc(Nc4cccc(F)c4)n3)no2)nc1` [Example 249, 6-[5-(5-aminopyridin-2-yl)-1,2,4-oxadiazol-3-yl]-2-N-(3-fluorophenyl)-1,3,5-triazine-2,4-diamine], for which the IC50 under setting [1] turned out to be 9.03 µM.
Consider `CC(OCC(F)(F)F)c1ccc(-c2nc(-c3nc(N)nc(N(C)c4ccccc4)n3)no2)nc1` (centres unmarked) [Example 358, 2-N-Methyl-2-N-phenyl-6-(5-{5-[1-(2,2,2-trifluoroethoxy)ethyl]pyridin-2-yl}-1,2,4-oxadiazol-3-yl)-1,3,5-triazine-2,4-diamine], for which the IC50 under setting [1] was found to be 0.056 µM.
As to `CN(c1ccccc1)c1nc(N)nc(-c2noc(-c3ncccc3OCC(F)(F)F)n2)n1` [Example 42, N-Methyl-N-phenyl-6-{5-[3-(2,2,2-trifluoro-ethoxy)-pyridin-2-yl]-[1,2,4]oxadiazol-3-yl}-[1,3,5]triazine-2,4-diamine], the IC50 under setting [2] worked out at 1.41 µM.
Regarding `CN(c1ccccc1)c1nc(N)nc(-c2noc(-c3ncco3)n2)n1` [Example 128, N-Methyl-6-(5-oxazol-2-yl-[1,2,4]oxadiazol-3-yl)-N-phenyl-[1,3,5]triazine-2,4-diamine], under setting [2], the IC50 stood at 1.51 µM.
Regarding `CN(c1ccccc1)c1nc(N)nc(-c2noc(-c3ccnnc3)n2)n1` [Example 469, 2-N-methyl-2-N-phenyl-6-[5-(pyridazin-4-yl)-1,2,4-oxadiazol-3-yl]-1,3,5-triazine-2,4-diamine], the IC50 under setting [1] amounted to 2.92 µM.
Turning to `CN(c1ccccc1)c1nc(N)nc(-c2noc(C3CCOCC3)n2)n1` [Example 57, N-Methyl-N-phenyl-6-[5-(tetrahydro-pyran-4-yl)-[1,2,4]oxadiazol-3-yl]-[1,3,5]triazine-2,4-diamine], under setting [2], the IC50 turned out to be 1.14 µM.
On to `CN(c1ccccc1)c1nc(N)nc(-c2noc(-c3ccc(C(N)=O)nc3)n2)n1` [Example 284, 5-(3-{4-Amino-6-[methyl(phenyl)amino]-1,3,5-triazin-2-yl}-1,2,4-oxadiazol-5-yl)pyridine-2-carboxamide], for which the IC50 under setting [1] was 0.711 µM.
Turning to `CN(c1ccccc1)c1nc(N)nc(-c2noc(-c3cc(C(F)(F)F)[nH]n3)n2)n1` [Example 255, 2-N-methyl-2-N-phenyl-6-{5-[5-(trifluoromethyl)-1H-pyrazol-3-yl]-1,2,4-oxadiazol-3-yl}-1,3,5-triazine-2,4-diamine], the IC50 under setting [1] was found to be 6.45 µM.
For `COc1cccc(-c2nc(-c3nc(N)nc(N(C)c4cccc(Cl)c4)n3)no2)c1` [Example 83, N-(3-Chloro-phenyl)-6-[5-(3-methoxy-phenyl)-[1,2,4]oxadiazol-3-yl]-N-methyl-[1,3,5]triazine-2,4-diamine], under setting [2], the IC50 amounted to 0.691 µM.
As to `Nc1nc(Nc2ccccc2)nc(-c2noc(C(=O)N3CCC(SCC(F)(F)F)CC3)n2)n1` [Example 466, 2-N-phenyl-6-[5-({4-[(2,2,2-trifluoroethyl)sulfanyl]piperidin-1-yl}carbonyl)-1,2,4-oxadiazol-3-yl]-1,3,5-triazine-2,4-diamine], the IC50 under setting [1] stood at 0.741 µM.
Turning to `Nc1nc(Nc2ccccc2)nc(-c2noc(N3CC(Oc4ccccc4)C3)n2)n1` [Example 503, 6-[5-(3-phenoxyazetidin-1-yl)-1,2,4-oxadiazol-3-yl]-2-N-phenyl-1,3,5-triazine-2,4-diamine], the IC50 under setting [1] was 0.461 µM.
`Nc1nc(Nc2cc(F)ccc2F)nc(-c2noc(-c3ccco3)n2)n1` [Example 109, N-(2,5-Difluoro-phenyl)-6-(5-furan-2-yl-[1,2,4]oxadiazol-3-yl)-[1,3,5]triazine-2,4-diamine]: the IC50 under setting [2] is 0.369 µM.
Regarding `CN(c1ccccc1)c1nc(N)nc(-c2noc(-c3ccc(COCC(F)(F)F)cn3)n2)n1` [Example 349, 2-N-methyl-2-N-phenyl-6-(5-{5-[(2,2,2-trifluoroethoxy)methyl]pyridin-2-yl}-1,2,4-oxadiazol-3-yl)-1,3,5-triazine-2,4-diamine], under setting [1], the IC50 stood at 0.0025 µM.
Regarding `CN(c1nc(N)nc(-c2noc(-c3ccc(OCC(F)(F)F)nc3)n2)n1)c1ccccc1F` [Example 408, 2-N-(2-fluorophenyl)-2-N-methyl-6-{5-[6-(2,2,2-trifluoroethoxy)pyridin-3-yl]-1,2,4-oxadiazol-3-yl}-1,3,5-triazine-2,4-diamine], under setting [1], the IC50 is 0.139 µM.
As to `CN(c1ccccc1)c1nc(N)nc(-c2noc(-c3ccc(F)cn3)n2)n1` [Example 153, 6-[5-(5-fluoropyridin-2-yl)-1,2,4-oxadiazol-3-yl]-2-N-methyl-2-N-phenyl-1,3,5-triazine-2,4-diamine], the IC50 under setting [2] worked out at 1.39 µM.
With `CN(c1ccccc1)c1nc(N)nc(-c2noc(-c3ccc(COCC4CC4)nc3)n2)n1` [Example 208, 6-(5-{6-[(cyclopropylmethoxy)methyl]pyridin-3-yl}-1,2,4-oxadiazol-3-yl)-2-N-methyl-2-N-phenyl-1,3,5-triazine-2,4-diamine], the IC50 under setting [1] worked out at 0.113 µM.
Regarding `CN(c1ccccc1)c1nc(N)nc(-c2noc(N3CCN(S(=O)(=O)N(C)C)CC3)n2)n1` [Example 388, 4-(3-{4-amino-6-[methyl(phenyl)amino]-1,3,5-triazin-2-yl}-1,2,4-oxadiazol-5-yl)-N,N-dimethylpiperazine-1-sulfonamide], the IC50 under setting [1] stood at 2.81 µM.
Turning to `NC(=O)c1nc(-c2nc(N)nc(Nc3ccccc3)n2)no1` [Example 222, 3-[4-amino-6-(phenylamino)-1,3,5-triazin-2-yl]-1,2,4-oxadiazole-5-carboxamide], the IC50 under setting [1] came out at 7.71 µM.
As to `Cc1cc(-c2nc(-c3nc(N)nc(N(C)c4ccccc4)n3)no2)oc1C` [Example 49, 6-[5-(4,5-Dimethyl-furan-2-yl)-[1,2,4]oxadiazol-3-yl]-N-methyl-N-phenyl-[1,3,5]triazine-2,4-diamine], the IC50 under setting [2] was 1.23 µM.
For `CN(c1ccc(F)cc1)c1nc(N)nc(-c2noc(-c3ncccc3F)n2)n1` [Example 474, 2-N-(4-fluorophenyl)-6-[5-(3-fluoropyridin-2-yl)-1,2,4-oxadiazol-3-yl]-2-N-methyl-1,3,5-triazine-2,4-diamine], the IC50 under setting [1] amounted to 0.289 µM.
Turning to `CN(c1ccccc1)c1nc(N)nc(-c2noc(C3CCC(NC(=O)C(F)(F)F)CC3)n2)n1` (centres unmarked) [Example 428, N-[4-(3-{4-amino-6-[methyl(phenyl)amino]-1,3,5-triazin-2-yl}-1,2,4-oxadiazol-5-yl)cyclohexyl]-2,2,2-trifluoroacetamide], the IC50 under setting [1] stood at 5.95 µM.
Turning to `CC(C)S(=O)(=O)N1CCC(c2nc(-c3nc(N)nc(N(C)c4ccccc4)n3)no2)C1` (centres unmarked) [Example 201, 2-N-methyl-2-N-phenyl-6-{5-[1-(propane-2-sulfonyl)pyrrolidin-3-yl]-1,2,4-oxadiazol-3-yl}-1,3,5-triazine-2,4-diamine], under setting [1], the IC50 stood at 3.29 µM.
The same measure, in the same setting: in the case of `CN(c1nc(N)nc(-c2noc(-c3ccc(OCC(F)(F)F)nc3)n2)n1)c1ccc(F)cc1F` [Example 417, 2-N-(2,4-difluorophenyl)-2-N-methyl-6-{5-[6-(2,2,2-trifluoroethoxy)pyridin-3-yl]-1,2,4-oxadiazol-3-yl}-1,3,5-triazine-2,4-diamine] it was 0.028 µM; in that of `CCC(C)S(=O)(=O)N1CCC(c2nc(-c3nc(N)nc(N(C)c4ccccc4)n3)no2)CC1` (centres unmarked) [Example 508, 6-{5-[1-(butane-2-sulfonyl)piperidin-4-yl]-1,2,4-oxadiazol-3-yl}-2-N-methyl-2-N-phenyl-1,3,5-triazine-2,4-diamine], 2.43 µM.
Regarding `Nc1nc(Nc2cccc(F)c2)nc(-c2noc(C(=O)NC3CCc4ccccc43)n2)n1` (centres unmarked) [Example 226, 3-{4-amino-6-[(3-fluorophenyl)amino]-1,3,5-triazin-2-yl}-N-(2,3-dihydro-1H-inden-1-yl)-1,2,4-oxadiazole-5-carboxamide], the IC50 under setting [1] came to 3.42 µM.
On to `CC(C)[S+]([O-])CC1CCN(c2nc(-c3nc(N)nc(N(C)c4ccccc4)n3)no2)CC1` (centres unmarked) [Example 180, 2-N-methyl-2-N-phenyl-6-(5-{4-[(propane-2-sulfinyl)methyl]piperidin-1-yl}-1,2,4-oxadiazol-3-yl)-1,3,5-triazine-2,4-diamine], for which the IC50 under setting [2] is greater than 7.71 µM.
Consider `Nc1nc(Nc2ccccc2)nc(-c2noc(N3CCC(COCC4CC4)CC3)n2)n1` [Example 214, 6-(5-{4-[(cyclopropylmethoxy)methyl]piperidin-1-yl}-1,2,4-oxadiazol-3-yl)-2-N-phenyl-1,3,5-triazine-2,4-diamine], for which, under setting [1], the IC50 was 0.233 µM.
Same read-out and setting: the same measure for `CN(c1ccccc1)c1nc(N)nc(-c2noc(C3CCC(NC(=O)OC(C)(C)C)CC3)n2)n1` (centres unmarked) [Example 423, tert-butyl N-[4-(3-{4-amino-6-[methyl(phenyl)amino]-1,3,5-triazin-2-yl}-1,2,4-oxadiazol-5-yl)cyclohexyl]carbamate]: 0.684 µM.
As for `CN(c1ccccc1)c1nc(N)nc(-c2noc([C@H]3CCCN3CCC(F)(F)F)n2)n1` [Example 442, 2-N-methyl-2-N-phenyl-6-{5-[(2R)-1-(3,3,3-trifluoropropyl)pyrrolidin-2-yl]-1,2,4-oxadiazol-3-yl}-1,3,5-triazine-2,4-diamine], the IC50 under setting [1] was 7.18 µM.
On to `CN(c1ccccc1)c1nc(N)nc(-c2noc(N3CCC(Oc4ccccc4)CC3)n2)n1` [Example 336, 2-N-methyl-6-[5-(4-phenoxypiperidin-1-yl)-1,2,4-oxadiazol-3-yl]-2-N-phenyl-1,3,5-triazine-2,4-diamine], for which, under setting [1], the IC50 worked out at 0.255 µM.
